Experimental data as given in patent US7893092B2, “Anthranilamide derivatives as insecticides” (Syngenta Crop Protection, Inc., priority 2004, dated 2011).
Read-outs that look alike come from different tables or passages of the source.

Tests used:
[1] = tested on: Spodoptera littoralis; assay: Activity against Spodoptera littoralis (Example B8); type: in vivo; details: 72 h, young soya plants sprayed, 400 ppm active ingredient, 1st instar caterpillars, 3 days, read-out: percentage reduction in the population and in the feeding damage (% activity)
Procedure: (§1) Young soya plants are sprayed with an aqueous emulsion spray mixture comprising 400 ppm of active ingredient and, after the spray coating has dried on, populated with 10 caterpillars (1st instar) of Spodoptera littoralis and introduced into a plastic container. 3 days later, the percentage reduction in the population and in the feeding damage (% activity) are determined by comparing the number of dead caterpillars and the feeding damage between the treated and untreated plants.

[2] = tested on: Plutella xylostella; assay: Activity against Plutella xylostella (Example B7); type: in vivo; details: 72 h, young cabbage plants sprayed, 400 ppm active ingredient, 3rd instar caterpillars, 3 days, read-out: percentage reduction in the population and in the feeding damage (% activity)
Procedure: as §1, with “cabbage” for “soya”, “(3rd” for “(1st”, “Plutella xylostella” for “Spodoptera littoralis”

[3] = tested on: Spodoptera littoralis; assay: Systemic insecticide test for Spodoptera littoralis (cotton leafworm) (Example B9); type: in vivo; details: 96 h, read-out: percentage of dead (activity)
Procedure: Four day old maize seedlings (Zea mays, variety Stoneville) are placed individual in vials containing 24 ml water into which the chemical is diluted at 12.5 ppm. Seedlings are allowed to grow for six days. Subsequently leaves are cut and placed in a Petri dish (5 cm diameter), inoculated with twelve to fifteen 1st instar S. littoralis larvae and incubated for four days in a growth chamber (25° C., 50% r.h., 18:6 L:D photo period). Number of alive insects are counted and percentage of dead calculated. Tests were conducted with one replicate. In this test, compounds listed in the Tables above show good activity. In particular compounds T1.1.17, T1.1.89, T41.1.1, T35.1.1, T40.1.1, T30.1.1, T44.1.1, T31.1.1, T31.1.2, T30.1.2, T1.1.17, T1.1.89, T16.1.1, T36.1.1, T16.1.1, T3.7.1, T18.1.1, T43.1.1, T42.1.1, T30.1.2, T30.1.1, T40.1.1, T41.1.1, T45.1.1, T35.1.1, T1.1.73, T18.1.1, T36.1.1, T1.1.1 and T1.1.73 have an activity of over 80%.

[4] = tested on: Diabrotica balteata; assay: Activity against Diabrotica balteata (Example B2); type: in vivo; details: 144 h, maize seedlings sprayed, 400 ppm active ingredient, 2nd instar larvae, 6 days, read-out: percentage reduction in the population (% activity)
Procedure: Maize seedlings are sprayed with an aqueous emulsion spray mixture comprising 400 ppm of active ingredient and, after the spray coating has dried on, populated with 10 larvae (2nd instar) of Diabrotica balteata and introduced into a plastic container. 6 days later, the percentage reduction in the population (% activity) is determined by comparing the number of dead larvae between the treated and untreated plants.

[5] = tested on: Heliothis virescens; assay: Activity against Heliothis virescens, foliar application (Example B3); type: in vivo; details: 144 h, young soya plants sprayed, 400 ppm active ingredient, 1st instar caterpillars, 6 days, read-out: percentage reduction in the population and in the feeding damage (% activity)
Procedure: as §1, with “Heliothis virescens” for “Spodoptera littoralis”, “6” for “3”

[6] = tested on: Myzus persicae; assay: Activity against Myzus persicae, foliar application (Example B5); type: in vivo; details: pea seedlings sprayed, 400 ppm active ingredient, 20°, 3 and 6 days, read-out: percentage reduction in the population (% activity)
Procedure: Pea seedlings are infected with Myzus persicae, subsequently sprayed with a spray mixture comprising 400 ppm of active ingredient and then incubated at 20°. 3 and 6 days later, the percentage reduction in the population (% activity) is determined by comparing the number of dead aphids between the treated and untreated plants.

melting point [°C] | SMILES | inhibition at 400 ppm [1] [%] | inhibition at 400 ppm [2] [%] | pest or weed control at 12.5 ppm ([3]; in Zea mays) [%] | inhibition at 400 ppm [4] [%] | inhibition at 400 ppm [5] [%] | pest or weed control at 12.5 ppm ([3]; maize seedlings in water with 12.5 ppm, 6 days growth, cut leaves, 1st instar larvae, 4 days, one replicate) [%] | inhibition at 400 ppm [6] [%]
 | Cc1cc(C#N)cc(C(=O)NC(C)(C)CS(C)(=N)=O)c1NC(=O)c1cc(C(F)(F)F)nn1-c1ncccc1Cl (stereo not shown) [T1.1.73] | > 80 | > 80 | > 80 | > 80 |  |  | 
 | Cc1cc(Cl)cc(C(=O)NCc2ccccc2S(C)(=O)=NC(=O)C(F)(F)F)c1NC(=O)c1cc(C(F)(F)F)nn1-c1ncccc1Cl (stereo not shown) [T35.1.1] | > 80 | > 80 |  |  | > 80 | > 80 | 
 | Cc1cc(Cl)cc(C(=O)NCC(C)(C)CS(C)(=O)=NC(=O)C(F)(F)F)c1NC(=O)c1cc(C(F)(F)F)nn1-c1ncccc1Cl (stereo not shown) [T43.1.1] | > 80 | > 80 | > 80 |  |  |  | 
 | Cc1cc(Cl)cc(C(=O)NCC(C)(C)CS(C)(=N)=O)c1NC(=O)c1cc(C(F)(F)F)nn1-c1ncccc1Cl (stereo not shown) [T42.1.1] | > 80 | > 80 | > 80 |  |  |  | 
225 to 226 | CCCCC(CS(C)(=N)=O)NC(=O)c1cc(Cl)cc(C)c1NC(=O)c1cc(C(F)(F)F)nn1-c1ncccc1Cl (stereo not shown) |  |  |  |  |  |  | 
187 to 189 | Cc1cc(C#N)cc(C(=O)NC2(CS(C)(=O)=NC(=O)C(F)(F)F)CC2)c1NC(=O)c1cc(C(F)(F)F)nn1-c1ncccc1Cl (stereo not shown) |  |  |  |  |  |  | 
 | Cc1cc(Cl)cc(C(=O)NC(C)(C)CS(C)(=N)=O)c1NC(=O)c1cc(OCC(F)(F)F)nn1-c1ncccc1Cl (stereo not shown) [T1.1.17] | > 80 | > 80 | > 80 | > 80 |  |  | 
 | Cc1cc(Cl)cc(C(=O)NC(C)CS(C)(=N)=O)c1NC(=O)c1cc(C(F)(F)F)nn1-c1ncccc1Cl (stereo not shown) [T16.1.1] | > 80 | > 80 | > 80 | > 80 | > 80 |  | 
 | Cc1cc(C#N)cc(C(=O)NC(C)(C)CS(C)(=N)=O)c1NC(=O)c1cc(OCC(F)(F)F)nn1-c1ncccc1Cl (stereo not shown) [T1.1.89] | > 80 | > 80 | > 80 | > 80 |  |  | 
 | Cc1cc(Cl)cc(C(=O)NCCCCS(C)(=N)=O)c1NC(=O)c1cc(C(F)(F)F)nn1-c1ncccc1Cl (stereo not shown) [T40.1.1] | > 80 | > 80 | > 80 |  |  |  | 
248 to 250 | Cc1cc(Cl)cc(C(=O)NC(CS(C)(=N)=O)C(C)C)c1NC(=O)c1cc(C(F)(F)F)nn1-c1ncccc1Cl (stereo not shown) |  |  |  |  |  |  | 
207 to 209 | COC(=O)C(CCS(C)(=N)=O)NC(=O)c1cc(Cl)cc(C)c1NC(=O)c1cc(C(F)(F)F)nn1-c1ncccc1Cl (stereo not shown) |  |  |  |  |  |  | 
 | Cc1cc(Cl)cc(C(=O)NC(C)CS(C)(=O)=NC(=O)C(F)(F)F)c1NC(=O)c1cc(C(F)(F)F)nn1-c1ncccc1Cl (stereo not shown) [T18.1.1] | > 80 | > 80 | > 80 | > 80 |  |  | 
 | CCS(=N)(=O)CCNC(=O)c1cc(Cl)cc(C)c1NC(=O)c1cc(C(F)(F)F)nn1-c1ncccc1Cl (stereo not shown) [T30.1.2] | > 80 | > 80 | > 80 |  |  |  | 
 | Cc1cc(Cl)cc(C(=O)NCCOCCS(C)(=O)=NC(=O)C(F)(F)F)c1NC(=O)c1cc(C(F)(F)F)nn1-c1ncccc1Cl (stereo not shown) [T45.1.1] |  | > 80 | > 80 |  |  |  | 
 | Cc1cc(Cl)cc(C(=O)NC(C)(C)CS(C)(=N)=O)c1NC(=O)c1cc(C(F)(F)F)nn1-c1ncccc1Cl (stereo not shown) [T1.1.1] | > 80 | > 80 | > 80 | > 80 | > 80 |  | > 80
 | CCS(=O)(CCNC(=O)c1cc(Cl)cc(C)c1NC(=O)c1cc(C(F)(F)F)nn1-c1ncccc1Cl)=NC(=O)C(F)(F)F (stereo not shown) [T31.1.2] | > 80 | > 80 | > 80 |  |  |  | 
 | Cc1cc(Cl)cc(C(=O)NCCS(C)(=O)=NC(=O)C(F)(F)F)c1NC(=O)c1cc(C(F)(F)F)nn1-c1ncccc1Cl (stereo not shown) [T31.1.1] | > 80 | > 80 | > 80 |  |  |  | 
 | Cc1cc(Cl)cc(C(=O)NCCS(C)(=N)=O)c1NC(=O)c1cc(C(F)(F)F)nn1-c1ncccc1Cl (stereo not shown) [T30.1.1] | > 80 | > 80 | > 80 |  |  |  | 
 | Cc1cc(Cl)cc(C(=O)NCCCCS(C)(=O)=NC(=O)C(F)(F)F)c1NC(=O)c1cc(C(F)(F)F)nn1-c1ncccc1Cl (stereo not shown) [T41.1.1] | > 80 | > 80 | > 80 |  |  |  | 
 | Cc1cc(Cl)cc(C(=O)NCC(C)S(C)(=N)=O)c1NC(=O)c1cc(C(F)(F)F)nn1-c1ncccc1Cl (stereo not shown) [T36.1.1] | > 80 | > 80 | > 80 |  |  |  | 
110 to 113 | Cc1cc(Cl)cc(C(=O)NCCCCCCS(C)(=O)=NC(=O)C(F)(F)F)c1NC(=O)c1cc(C(F)(F)F)nn1-c1ncccc1Cl (stereo not shown) [T47.1.1] | > 80 | > 80 |  |  |  |  | 
125 to 130 | Cc1cc(Cl)cc(C(=O)NCC(C)S(C)(=O)=NC(=O)C(F)(F)F)c1NC(=O)c1cc(C(F)(F)F)nn1-c1ncccc1Cl (stereo not shown) |  |  |  |  |  |  | 
 | Cc1cc(Cl)cc(C(=O)NCCOCCS(C)(=N)=O)c1NC(=O)c1cc(C(F)(F)F)nn1-c1ncccc1Cl (stereo not shown) [T44.1.1] | > 80 | > 80 | > 80 |  |  |  | 

SMILES | melting point [°C] | inhibition at 400 ppm [1] [%] | inhibition at 400 ppm [2] [%] | pest or weed control at 12.5 ppm ([3]; in Zea mays) [%] | inhibition at 400 ppm [4] [%] | inhibition at 400 ppm [5] [%] | pest or weed control at 12.5 ppm ([3]; maize seedlings in water with 12.5 ppm, 6 days growth, cut leaves, 1st instar larvae, 4 days, one replicate) [%] | inhibition at 400 ppm [6] [%]
Cc1cc(Cl)cc(C(=O)NCCCCCCS(C)(=N)=O)c1NC(=O)c1cc(C(F)(F)F)nn1-c1ncccc1Cl (stereo not shown) [T46.1.1] | 148 to 152 | > 80 | > 80 |  |  | > 80 |  | 
Cc1cc(Cl)cc(C(=O)NCc2ccccc2S(C)(=N)=O)c1NC(=O)c1cc(C(F)(F)F)nn1-c1ncccc1Cl (stereo not shown) [T34.1.1] | 235 to 238 | > 80 | > 80 |  |  |  |  | 
Cc1cc(Cl)cc(C(=O)NC(C)(C)CS(C)(=O)=NC(=O)C(F)(F)F)c1NC(=O)c1cc(C(F)(F)F)nn1-c1ncccc1Cl (stereo not shown) [T3.1.1] | 112 to 115 | > 80 | > 80 |  | > 80 | > 80 |  | > 80
CCC(CS(C)(=O)=NC(=O)C(F)(F)F)NC(=O)c1cc(Cl)cc(C)c1NC(=O)c1cc(C(F)(F)F)nn1-c1ncccc1Cl (stereo not shown) [T39.1.1] | 170 to 174 |  | > 80 |  |  |  |  | 
CCC(CS(C)(=N)=O)NC(=O)c1cc(Cl)cc(C)c1NC(=O)c1cc(C(F)(F)F)nn1-c1ncccc1Cl (stereo not shown) [T38.1.1] | 180 to 185 |  | > 80 |  |  |  |  | 
